In patent US7683064B2, “Inhibitors of Bruton's tyrosine kinase” (Roche Palo Alto LLC, priority 2008, dated 2010):

biological target: T1, Btk enzyme (His-tagged, full-length) (Homo sapiens, UniProt Q06187); assay: Bruton's Tyrosine Kinase (Btk) inhibition assay, 33P filtration capture; type: biochemical; conditions: 100 μM ATP, 30 μM biotinylated SH2 peptide substrate, 5-10 nM Btk, 30 min at 30° C.
T1 construct: 5-10 nM Btk enzyme (His-tagged, full-length); His tag
Source text: The assay is a capture of radioactive ^33P phosphorylated product through filtration. The interactions of Btk, biotinylated SH2 peptide substrate (Src homology), and ATP lead to phosphorylation of the peptide substrate. Biotinylated product is bound streptavidin sepharose beads. All bound, radiolabeled products are detected by scintillation counter.
Plates assayed are 96-well polypropylene (Greiner) and 96-well 1.2 μm hydrophilic PVDF filter plates (Millipore). Concentrations reported here are final assay concentrations: 10-100 μM compounds in DMSO (Burdick and Jackson), 5-10 nM Btk enzyme (His-tagged, full-length), 30 μM peptide substrate (Biotin-Aca-[…]-NH2), 100 μM ATP (Sigma), 8 mM imidazole (Sigma, pH 7.2), 8 mM glycerol-2-phosphate (Sigma), 200 μM EGTA (Roche Diagnostics), 1 mM MnCl2 (Sigma), 20 mM MgCl2 (Sigma), 0.1 mg/ml BSA (Sigma), 2 mM DTT (Sigma), 1 μCi ^33P ATP (Amersham), 20% streptavidin sepharose beads (Amersham), 50 mM EDTA (Gibco), 2 M NaCl (Gibco), 2 M NaCl w/1% phosphoric acid (Gibco), microscint-20 (Perkin Elmer).
IC50 determinations are calculated from 10 data points per compound utilizing data produced from a standard 96-well plate assay template. One control compound and seven unknown inhibitors were tested on each plate and each plate was run twice. Typically, compounds were diluted in half-log starting at 100 μM and ending at 3 nM. The control compound was staurosporine. Background was counted in the absence of peptide substrate. Total activity was determined in the presence of peptide substrate. The following protocol was used to determine Btk inhibition.
1) Sample preparation: The test compounds were diluted at half-log increments in assay buffer (imidazole, glycerol-2-phosphate, EGTA, MnCl2, MgCl2, BSA).
• a.) rinse beads by centrifuging at 500 g • b.) reconstitute the beads with PBS and EDTA to produce a 20% bead slurry 3) Pre-incubate reaction mix without substrate (assay buffer, DTT, ATP, ^33P ATP) and mix with substrate (assay buffer, DTT, ATP, ^33P ATP, peptide substrate) 30° C. for 15 min. 4) To start assay, pre-incubate 10 μL Btk in enzyme buffer (imidazole, glycerol-2-phos-phate, BSA) and 10 μL of test compounds for 10 min at RT. 5) Add 30 μL reaction mixture without or with substrate to Btk and compounds. 6) Incubate 50 μL total assay mix for 30 min at 30° C. 7) Transfer 40 μL of assay to 150 μL bead slurry in filter plate to stop reaction. 8) Wash filter plate after 30 min, with following steps • a. 3×250 μL NaCl • b. 3×250 μL NaCl containing 1% phosphoric acid • c.

T1 sequence (Q06187 whole entry): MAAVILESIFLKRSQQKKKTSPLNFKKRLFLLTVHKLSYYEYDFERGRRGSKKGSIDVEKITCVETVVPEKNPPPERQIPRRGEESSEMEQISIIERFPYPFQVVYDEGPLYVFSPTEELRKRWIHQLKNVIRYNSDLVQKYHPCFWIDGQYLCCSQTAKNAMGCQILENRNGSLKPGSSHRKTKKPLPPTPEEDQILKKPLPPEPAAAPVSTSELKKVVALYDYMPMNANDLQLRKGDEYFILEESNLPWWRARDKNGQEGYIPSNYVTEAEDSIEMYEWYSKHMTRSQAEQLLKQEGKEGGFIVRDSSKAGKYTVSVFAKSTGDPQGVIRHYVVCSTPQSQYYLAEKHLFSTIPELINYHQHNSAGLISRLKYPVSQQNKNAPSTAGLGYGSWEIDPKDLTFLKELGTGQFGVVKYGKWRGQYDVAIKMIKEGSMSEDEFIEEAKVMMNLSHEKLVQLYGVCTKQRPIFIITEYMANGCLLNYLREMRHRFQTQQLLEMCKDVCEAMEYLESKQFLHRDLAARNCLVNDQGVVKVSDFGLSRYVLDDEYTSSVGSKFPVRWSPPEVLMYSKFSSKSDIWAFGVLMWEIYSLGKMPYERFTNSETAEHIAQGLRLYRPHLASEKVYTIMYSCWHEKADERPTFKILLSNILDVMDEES

SMILES	IC50
CN(C)c1ccc2c(c1)CCN(c1cccc(-c3cc(Nc4ccc(C(=O)N5CCOCC5)cn4)c(=O)n(C)c3)c1)C2=O [Example I-1, 6-Dimethylamino-2-(3-{1-methyl-5-[5-(morpholine-4-carbonyl)-pyridin-2-ylamino]-6-oxo-1,6-dihydro-pyridin-3-yl}-phenyl)-3,4-dihydro-2H-isoquinolin-1-one]	420 nM
CN(C)c1ccc2c(c1)CCN(c1cccc(-c3cc(Nc4ccc(C(=O)N5CCOCC5)cn4)c(=O)n(C)c3)c1CO)C2=O [Example I-2, 6-Dimethylamino-2-(2-hydroxymethyl-3-{1-methyl-5-[5-(morpholine-4-carbonyl)-pyridin-2-ylamino]-6-oxo-1,6-dihydro-pyridin-3-yl}-phenyl)-3,4-dihydro-2H-isoquinolin-1-one]	40 nM
Cc1c(-c2cc(Nc3ccc(C(=O)N4CCOCC4)cn3)c(=O)n(C)c2)cccc1-c1c[nH]c2cc(N(C)C)ccc2c1=O [II-2, 7-Dimethylamino-3-(2-methyl-3-{1-methyl-5-[5-(morpholine-4-carbonyl)-pyridin-2-ylamino]-6-oxo-1,6-dihydro-pyridin-3-yl}-phenyl)-1H-quinolin-4-one]	370 nM
CN(C)c1ccc2c(=O)n(-c3cccc(-c4cc(Nc5ccc(C(=O)N6CCOCC6)cn5)c(=O)n(C)c4)c3)ccc2c1 [III-1, 6-Dimethylamino-2-(3-{1-methyl-5-[5-(morpholine-4-carbonyl)-pyridin-2-ylamino]-6-oxo-1,6-dihydro-pyridin-3-yl}-phenyl)-2H-isoquinolin-1-one]	1080 nM
Cc1c(-c2cc(Nc3ccc(C(=O)N4CCOCC4)cn3)c(=O)n(C)c2)cccc1-n1ccc2cc(N(C)C)ccc2c1=O [III-2, 6-Dimethylamino-2-(2-methyl-3-{1-methyl-5-[5-(morpholine-4-carbonyl)-pyridin-2-ylamino]-6-oxo-1,6-dihydro-pyridin-3-yl}-phenyl)-2H-isoquinolin-1-one]	2760 nM
